Experimental data as given in ChEMBL document CHEMBL3046208, “Natural and synthetic podolactones with potential use as natural herbicide models” (2000).
Calls of active or inactive are those of the source.

Key:
[1] = test system: Hordeum vulgare; experiment: Stimulation of root length of Hordeum vulgare (barley) at 0.1 mM after 5 days relative to untreated control; assay type: functional
[2] = test system: Triticum aestivum; experiment: Stimulation of shoot length of Triticum aestivum (wheat) at 0.1 mM after 5 days relative to untreated control; assay type: functional
[3] = test system: Hordeum vulgare; experiment: Stimulation of germination of Hordeum vulgare (barley) at 0.1 mM after 5 days relative to untreated control; assay type: functional
[4] = test system: Triticum aestivum; experiment: Stimulation of root length of Triticum aestivum (wheat) at 0.1 mM after 5 days relative to untreated control; assay type: functional
[5] = test system: Triticum aestivum; experiment: Stimulation of germination of Triticum aestivum (wheat) at 0.1 mM after 5 days relative to untreated control; assay type: functional
[6] = test system: Allium cepa; experiment: Stimulation of root length of Allium cepa (onion) at 0.1 mM after 5 days relative to untreated control; assay type: functional
[7] = test system: Allium cepa; experiment: Stimulation of shoot length of Allium cepa (onion) at 0.1 mM after 5 days relative to untreated control; assay type: functional
[8] = test system: Allium cepa; experiment: Stimulation of germination of Allium cepa (onion) at 0.1 mM after 5 days relative to untreated control; assay type: functional
[9] = test system: Solanum lycopersicum; experiment: Stimulation of shoot length of Solanum lycopersicum (tomato) at 0.1 mM after 5 days relative to untreated control; assay type: functional
[10] = test system: Solanum lycopersicum; experiment: Stimulation of root length of Solanum lycopersicum (tomato) at 0.1 mM after 5 days relative to untreated control; assay type: functional
[11] = test system: Solanum lycopersicum; experiment: Stimulation of germination of Solanum lycopersicum (tomato) at 0.1 mM after 5 days relative to untreated control; assay type: functional
[12] = test system: Lepidium sativum; experiment: Stimulation of shoot length of Lepidium sativum at 0.1 mM after 5 days relative to untreated control; assay type: functional
[13] = test system: Lepidium sativum; experiment: Stimulation of root length of Lepidium sativum at 0.1 mM after 5 days relative to untreated control; assay type: functional
[14] = test system: Lactuca sativa; experiment: Stimulation of shoot length of Lactuca sativa cv. Roman (lettuce) at 0.1 mM after 5 days relative to untreated control; assay type: functional
[15] = test system: Lepidium sativum; experiment: Stimulation of germination of Lepidium sativum at 0.1 mM after 5 days relative to untreated control; assay type: functional
[16] = test system: Lactuca sativa; experiment: Stimulation of root length of Lactuca sativa cv. Roman (lettuce) at 0.1 mM after 5 days relative to untreated control; assay type: functional
[17] = test system: Lactuca sativa; experiment: Stimulation of germination of Lactuca sativa cv. Roman (lettuce) at 0.1 mM after 5 days relative to untreated control; assay type: functional
[18] = test system: Lactuca sativa; experiment: Stimulation of shoot length of Lactuca sativa cv. Nigra (lettuce) at 0.1 mM after 5 days relative to untreated control; assay type: functional
[19] = test system: Lactuca sativa; experiment: Stimulation of root length of Lactuca sativa cv. Nigra (lettuce) at 0.1 mM after 5 days relative to untreated control; assay type: functional
[20] = test system: Lactuca sativa; experiment: Stimulation of germination of Lactuca sativa cv. Nigra (lettuce) at 0.1 mM after 5 days relative to untreated control; assay type: functional
[21] = test system: Triticum aestivum; experiment: Inhibition of shoot length of Triticum aestivum (wheat) at 0.1 mM after 5 days relative to untreated control; assay type: functional
[22] = test system: Hordeum vulgare; experiment: Inhibition of germination of Hordeum vulgare (barley) at 0.1 mM after 5 days relative to untreated control; assay type: functional; conditions: 120 h
[23] = test system: Hordeum vulgare; experiment: Inhibition of root length of Hordeum vulgare (barley) at 0.1 mM after 5 days relative to untreated control; assay type: functional; conditions: 120 h
[24] = test system: Hordeum vulgare; experiment: Stimulation of shoot length of Hordeum vulgare (barley) at 0.1 mM after 5 days relative to untreated control; assay type: functional
[25] = test system: Lactuca sativa; experiment: Inhibition of germination of Lactuca sativa cv. Nigra (lettuce) at 0.1 mM after 5 days relative to untreated control; assay type: functional; conditions: 120 h
[26] = test system: Lactuca sativa; experiment: Inhibition of root length of Lactuca sativa cv. Nigra (lettuce) at 0.1 mM after 5 days relative to untreated control; assay type: functional; conditions: 120 h
[27] = test system: Lactuca sativa; experiment: Inhibition of shoot length of Lactuca sativa cv. Nigra (lettuce) at 0.1 mM after 5 days relative to untreated control; assay type: functional; conditions: 120 h
[28] = test system: Allium cepa; experiment: Inhibition of germination of Allium cepa (onion) at 1 uM after 5 days relative to untreated control; assay type: functional; conditions: 120 h
[29] = test system: Solanum lycopersicum; experiment: Stimulation of root length of Solanum lycopersicum (tomato) at 10 nM after 5 days relative to untreated control; assay type: functional
[30] = test system: Lactuca sativa; experiment: Inhibition of germination of Lactuca sativa cv. Roman (lettuce) at 0.1 mM after 5 days relative to untreated control; assay type: functional; conditions: for inhibition at 100 µM: 120 h
[31] = test system: Lactuca sativa; experiment: Inhibition of root length of Lactuca sativa cv. Roman (lettuce) at 0.1 mM after 5 days relative to untreated control; assay type: functional; conditions: for inhibition at 100 µM: 120 h
[32] = test system: Lactuca sativa; experiment: Inhibition of shoot length of Lactuca sativa cv. Roman (lettuce) at 0.1 mM after 5 days relative to untreated control; assay type: functional; conditions: 120 h
[33] = test system: Lepidium sativum; experiment: Inhibition of germination of Lepidium sativum at 0.1 mM after 5 days relative to untreated control; assay type: functional
[34] = test system: Lepidium sativum; experiment: Inhibition of root length of Lepidium sativum at 0.1 mM after 5 days relative to untreated control; assay type: functional; conditions: 120 h
[35] = test system: Lepidium sativum; experiment: Inhibition of shoot length of Lepidium sativum at 0.1 mM after 5 days relative to untreated control; assay type: functional; conditions: 120 h
[36] = test system: Solanum lycopersicum; experiment: Inhibition of germination of Solanum lycopersicum (tomato) at 0.1 mM after 5 days relative to untreated control; assay type: functional
[37] = test system: Solanum lycopersicum; experiment: Inhibition of root length of Solanum lycopersicum (tomato) at 0.1 mM after 5 days relative to untreated control; assay type: functional; conditions: 120 h
[38] = test system: Solanum lycopersicum; experiment: Inhibition of shoot length of Solanum lycopersicum (tomato) at 0.1 mM after 5 days relative to untreated control; assay type: functional; conditions: 120 h
[39] = test system: Allium cepa; experiment: Inhibition of germination of Allium cepa (onion) at 0.1 mM after 5 days relative to untreated control; assay type: functional; conditions: for inhibition at 100 µM: 120 h
[40] = test system: Allium cepa; experiment: Inhibition of root length of Allium cepa (onion) at 0.1 mM after 5 days relative to untreated control; assay type: functional; conditions: for inhibition at 100 µM: 120 h
[41] = test system: Allium cepa; experiment: Inhibition of shoot length of Allium cepa (onion) at 0.1 mM after 5 days relative to untreated control; assay type: functional; conditions: 120 h
[42] = test system: Triticum aestivum; experiment: Inhibition of germination of Triticum aestivum (wheat) at 0.1 mM after 5 days relative to untreated control; assay type: functional
[43] = test system: Triticum aestivum; experiment: Inhibition of root length of Triticum aestivum (wheat) at 0.1 mM after 5 days relative to untreated control; assay type: functional; conditions: for inhibition at 100 µM: 120 h
[44] = test system: Hordeum vulgare; experiment: Inhibition of shoot length of Hordeum vulgare (barley) at 0.1 mM after 5 days relative to untreated control; assay type: functional
[45] = test system: Solanum lycopersicum; experiment: Inhibition of shoot length of Solanum lycopersicum (tomato) at 10 uM after 5 days relative to untreated control; assay type: functional, organism-based
[46] = test system: Solanum lycopersicum; experiment: Inhibition of root length of Solanum lycopersicum (tomato) at 10 uM after 5 days relative to untreated control; assay type: functional, organism-based
[47] = test system: Solanum lycopersicum; experiment: Inhibition of germination of Solanum lycopersicum (tomato) at 10 uM after 5 days relative to untreated control; assay type: functional, organism-based
[48] = test system: Lepidium sativum; experiment: Inhibition of shoot length of Lepidium sativum at 10 uM after 5 days relative to untreated control; assay type: functional, organism-based
[49] = test system: Lepidium sativum; experiment: Inhibition of root length of Lepidium sativum at 10 uM after 5 days relative to untreated control; assay type: functional, organism-based
[50] = test system: Lepidium sativum; experiment: Inhibition of germination of Lepidium sativum at 10 uM after 5 days relative to untreated control; assay type: functional, organism-based
[51] = test system: Hordeum vulgare; experiment: Inhibition of germination of Hordeum vulgare (barley) at 10 nM after 5 days relative to untreated control; assay type: functional; conditions: 120 h

COC(=O)[C@@]1(C)CCC[C@@]2(C)[C@H]1CC[C@H]1COC(=O)C[C@@H]12
20%: Activity [7] | Activity [8] | Activity [9] | Activity [12] | Activity [14] | Activity [18] | Activity [20] | inhibition at 100 µM [25] | inhibition at 100 µM [27] | inhibition at 100 µM [32] | inhibition at 100 µM [35] | inhibition at 100 µM [38] | inhibition at 100 µM [39] | inhibition at 100 µM [41]
60%: Activity [29]
inactive: Activity [2] | Activity [5] | Activity [11] | Activity [15] | Activity [17] | inhibition [21] | Activity [24] | inhibition [30] | inhibition [33] | inhibition [36] | inhibition [42] | inhibition [44]
<20%: Activity [4] | Activity [6] | Activity [13] | Activity [16] | Activity [19]
-46%: inhibition at 1 µM [28]
> 40%: inhibition at 100 µM [22] | inhibition at 100 µM [23] | inhibition at 100 µM [37]
>40%: Activity [1] | Activity [3] | Activity [10]
< 20%: inhibition at 100 µM [26] | inhibition at 100 µM [31] | inhibition at 100 µM [34] | inhibition at 100 µM [40] | inhibition at 100 µM [43]

CO[C@H]1OC(=O)C=C2C1=C[C@H]1OC(=O)[C@@]3(C)CCC[C@@]2(C)[C@@H]13
> 40%: inhibition at 100 µM ([21]; 120 h) | inhibition at 100 µM [22] | inhibition at 100 µM [23] | inhibition at 100 µM [25] | inhibition at 100 µM [26] | inhibition at 100 µM [27] | inhibition at 100 µM [30] | inhibition at 100 µM [31] | inhibition at 100 µM [32] | inhibition at 100 µM [34] | inhibition at 100 µM [35] | inhibition at 100 µM ([36]; 120 h) | inhibition at 100 µM [37] | inhibition at 100 µM [38] | inhibition at 100 µM [39] | inhibition at 100 µM [40] | inhibition at 100 µM [41] | inhibition at 100 µM ([42]; 120 h) | inhibition at 100 µM [43] | inhibition at 100 µM ([44]; 120 h)
active: inhibition [45] | inhibition [46] | inhibition [47] | inhibition [48] | inhibition [49] | inhibition [50]
20%: Activity [15] | inhibition at 100 µM ([33]; 120 h)
>40%: Activity [1] | Activity [2] | Activity [3] | Activity [4] | Activity [5] | Activity [6] | Activity [7] | Activity [8] | Activity [9] | Activity [10] | Activity [11] | Activity [12] | Activity [13] | Activity [14] | Activity [16] | Activity [17] | Activity [18] | Activity [19] | Activity [20] | Activity [24]

C[C@]1(C(=O)O)CCC[C@]2(C)C3=CC(=O)OC[C@]34O[C@@H]4C[C@@H]12
inactive: Activity [2] | Activity [4] | Activity [5] | Activity [6] | Activity [8] | Activity [11] | Activity [15] | Activity [16] | inhibition [21] | Activity [24] | inhibition [31] | inhibition [33] | inhibition [36] | inhibition [39] | inhibition [40] | inhibition [42] | inhibition [43] | inhibition [44]
> 40%: inhibition at 100 µM [22]
< 20%: inhibition at 100 µM [25] | inhibition at 100 µM [26] | inhibition at 100 µM [27] | inhibition at 100 µM [30] | inhibition at 100 µM [32] | inhibition at 100 µM [34] | inhibition at 100 µM [38] | inhibition at 100 µM [41]
<20%: Activity [7] | Activity [9] | Activity [13] | Activity [14] | Activity [17] | Activity [18] | Activity [19] | Activity [20]
-72%: inhibition at 0.01 µM [51]
>40%: Activity [3]
20%: Activity [1] | Activity [10] | Activity [12] | inhibition at 100 µM [23] | inhibition at 100 µM [35] | inhibition at 100 µM [37]
